Assay results as given in the NIST ThermoML archive (doi:10.1021/je8009545).

Experiment: xn = mol fraction of the nth substance listed
Settings: Gas, x2 = 0; for mass density: Gas pipette; for viscosity: Oscillating disk viscometry

N#N [nitrogen] + COC
Settings	mass density [kg/m3]	viscosity [mPa·s]
298.15 K, 101 kPa	1.178	0.01786
298.15 K, 240 kPa	2.833	0.01788
298.15 K, 672 kPa	7.705	0.01794
323.15 K, 101 kPa	0.858	0.01901
323.15 K, 290 kPa	3.114	0.01904
323.15 K, 466 kPa	4.925	0.01906
323.15 K, 856 kPa	9.024	0.01911
348.15 K, 101 kPa	0.761	0.0201
348.15 K, 518 kPa	5.043	0.02016
348.15 K, 1010 kPa	9.8	0.02022
348.15 K, 2028 kPa	19.63	0.02037
373.15 K, 101 kPa	0.633	0.02116
373.15 K, 495 kPa	4.527	0.02121
373.15 K, 1000 kPa	8.832	0.02126
373.15 K, 2006 kPa	18.01	0.0214
373.15 K, 2930 kPa	26.15	0.02152
373.15 K, 3985 kPa	35.64	0.02168
373.15 K, 4966 kPa	44.7	0.02184
398.15 K, 101 kPa	0.727	0.02219
398.15 K, 520 kPa	4.329	0.02222
398.15 K, 1003 kPa	8.657	0.02228
398.15 K, 2000 kPa	16.49	0.0224
398.15 K, 3473 kPa	28.94	0.02259
398.15 K, 4849 kPa	40.28	0.02278
423.15 K, 101 kPa	0.568	0.02318
423.15 K, 550 kPa	4.226	0.02322
423.15 K, 1032 kPa	8.294	0.02328
423.15 K, 2012 kPa	15.86	0.02338
423.15 K, 3435 kPa	26.9	0.02354
423.15 K, 4832 kPa	37.69	0.02373
